US11414450B1, “Aminoglycosides and uses thereof” (REVAGENIX, INC., priority 2017, dated 2022)

Experiments:
E. coli ATCC 25922 = assay: Minimum inhibitory concentration (broth microdilution, CLSI), E. coli ATCC 25922; format: cell-based; conditions: geometric mean
Procedure: (§1) Minimum inhibitory concentrations for the example compounds herein are determined by the broth microdilution method in accordance with the Clinical and Laboratory Standards Institute (CLSI) guidelines. In brief, organism suspensions are adjusted to a 0.5 McFarland standard to yield a final inoculum between 3×10^5 and 7×10^5 colony-forming units (CFU)/mL. Compound dilutions and inocula are made in sterile, cation adjusted Mueller-Hinton Broth (Beckton Dickinson). The inoculum is prepared by suspension of a colony from an agar plate that is prepared the previous day. Bacteria are suspended in sterile saline and added to each assay plate to obtain a final concentration of 5×10^5 CFU/mL. An inoculum volume of 100 μL is added to wells containing 100 μL of broth with 2-fold serial dilutions of the compound. All inoculated microdilution trays are incubated in ambient air at 35° C. for 18-24 hours. Following incubation, the lowest concentration of the compound that prevents visible growth (OD 600 nm<0.05) is recorded as the MIC. […] Performance of the assay is monitored by the use of laboratory quality-control strains and a compound with a defined MIC spectrum (such as levofloxacin), in accordance with CLSI guidelines. Compounds are tested against multiple microbiologic panels. Panels include: 1) a multi-species primary screening panel that includes multiple defined AG-R mechanisms; 2) a panel of isogenic strains carrying different common mechanisms of AG-R that allows characterization of the SAR for AMEs, RMTs, and entry and efflux resistance mechanisms; and 3) panels of recent clinical isolates selected from Phase 3 studies and ongoing global surveillance.

E. coli efflux parent = assay: MIC broth microdilution, E. coli efflux parent strain; format: cell-based; conditions: geometric mean
Procedure: as §1

[1] = system: E. coli Δefflux (tolC efflux pump knocked-out); assay: MIC broth microdilution, E. coli Δefflux strain (tolC knocked out); format: cell-based
Procedure: as §1

[2] = system: E. coli isogenic strain empty vector; assay: MIC broth microdilution, E. coli isogenic strain, empty vector; format: cell-based; conditions: Table 2
Procedure: as §1

[3] = system: E. coli isogenic strain aac(6′)-Ib; assay: MIC broth microdilution, E. coli isogenic strain aac(6′)-Ib; format: cell-based; conditions: Table 2
Procedure: as §1

[4] = system: E. coli isogenic strain aph(3′)-II; assay: MIC broth microdilution, E. coli isogenic strain aph(3′)-II; format: cell-based; conditions: Table 2
Procedure: as §1

[5] = system: E. coli isogenic strain aph(3′)-Ia; assay: MIC broth microdilution, E. coli isogenic strain aph(3′)-Ia; format: cell-based; conditions: Table 2; aph(3′)-Ia has activity at both the 3′-hydroxy and 5″-hydroxy positions
Procedure: as §1

[6] = system: E. coli isogenic strain ant(4′)-Ia; assay: MIC broth microdilution, E. coli isogenic strain ant(4′)-Ia; format: cell-based; conditions: Table 2
Procedure: as §1

[7] = system: E. coli isogenic strain armA; assay: MIC broth microdilution, E. coli isogenic strain armA; format: cell-based; conditions: Table 2
Procedure: as §1

[8] = system: E. coli isogenic strain nmpA; assay: MIC broth microdilution, E. coli isogenic strain nmpA; format: cell-based; conditions: Table 2
Procedure: as §1

P. aeruginosa ATCC 27853 = assay: MIC broth microdilution, P. aeruginosa ATCC 27853; format: cell-based; conditions: Table 1; geometric mean
Procedure: as §1

[9] = system: P. aeruginosa efflux parent; assay: MIC broth microdilution, P. aeruginosa efflux parent strain; format: cell-based; conditions: Table 1; geometric mean
Procedure: as §1

[10] = system: P. aeruginosa Δefflux (MexAB-OprM, MexCD-OprJ, MexEF-OprN knocked out); assay: MIC broth microdilution, P. aeruginosa Δefflux strain; format: cell-based; conditions: Table 1, MexEF-OprN efflux pumps knocked out
Procedure: as §1

translation = assay: Translation Inhibition Assay; format: biochemical; conditions: Table 1
Excerpt: Biological Example 2: Translation Inhibition Assay

NCC1OC(OC2C(CO)OC(OC3C(O)C(N)CC(N)C3OC3OC(CN)C(F)(F)C(O)C3N)C2O)C(N)C(O)C1O (stereo not shown)
Geometric Mean MIC values, E. coli ATCC 25922 (E. coli ATCC 25922; Table 2): 2 µg/mL | Geometric Mean MIC values, E. coli efflux parent (E. coli efflux parent; Table 2): 2 µg/mL | Geometric Mean MIC values, E. coli Δefflux ([1]; Table 2): 1 µg/mL | Geometric Mean MIC values, E. coli isogenic strains, empty vector [2]: 1.4 mg/L | Geometric Mean MIC values, E. coli isogenic strains, aac(6′)-Ib [3]: 16 mg/L | Geometric Mean MIC values, E. coli isogenic strains, aph(3′)-II [4]: 4 mg/L | Geometric Mean MIC values, E. coli isogenic strains, aph(3′)-Ia [5]: >64 mg/L | Geometric Mean MIC values, E. coli isogenic strains, ant(4′)-Ia [6]: 1 mg/L | Geometric Mean MIC values, E. coli isogenic strains, armA [7]: 4 mg/L | Geometric Mean MIC values, E. coli isogenic strains, nmpA [8]: 64 mg/L

NCC1OC(OC2C(CO)OC(OC3C(O)C(N)CC(N)C3OC3OC(CN)C(O)C(F)C3N)C2O)C(N)C(O)C1O (stereo not shown) [drawing 869]
Geometric Mean MIC values, E. coli ATCC 25922 (E. coli ATCC 25922; Table 2): 1 µg/mL | Geometric Mean MIC values, E. coli efflux parent (E. coli efflux parent; Table 2): 1 µg/mL | Geometric Mean MIC values, E. coli Δefflux ([1]; Table 2): 1 µg/mL | Geometric Mean MIC values, E. coli isogenic strains, empty vector [2]: 1 mg/L | Geometric Mean MIC values, E. coli isogenic strains, aac(6′)-Ib [3]: 4 mg/L | Geometric Mean MIC values, E. coli isogenic strains, aph(3′)-II [4]: 1 mg/L | Geometric Mean MIC values, E. coli isogenic strains, aph(3′)-Ia [5]: >64 mg/L | Geometric Mean MIC values, E. coli isogenic strains, ant(4′)-Ia [6]: 1 mg/L | Geometric Mean MIC values, E. coli isogenic strains, armA [7]: 4 mg/L | Geometric Mean MIC values, E. coli isogenic strains, nmpA [8]: >64 mg/L

NCC1OC(OC2C(CO)OC(OC3C(O)C(N)CC(N)C3OC3OC(CN)C(O)C(F)C3N)C2O)C(N)C(O)C1O (stereo not shown) [drawing 853]
Geometric Mean MIC values, E. coli ATCC 25922 (E. coli ATCC 25922; Table 1): 2 µg/mL | Geometric Mean MIC values, E. coli efflux parent (E. coli efflux parent; Table 1): 2 µg/mL | Geometric Mean MIC values, E. coli Δefflux ([1]; Table 1): 1 µg/mL | Geometric Mean MIC values, P. aeruginosa ATCC 27853 (P. aeruginosa ATCC 27853): 1 µg/mL | Geometric Mean MIC values, P. aeruginosa efflux parent [9]: 2 µg/mL | Geometric Mean MIC values, P. aeruginosa Δefflux [10]: 0.5 µg/mL | IC50 (translation): 10 nM

NCC1OC(OC2C(CO)OC(OC3C(O)C(N)CC(N)C3OC3OC(CN)C(O)C(F)(F)C3N)C2O)C(N)C(O)C1O (stereo not shown) [drawing 854]
Geometric Mean MIC values, E. coli ATCC 25922 (E. coli ATCC 25922; Table 1): 4 µg/mL | Geometric Mean MIC values, E. coli efflux parent (E. coli efflux parent; Table 1): 4 µg/mL | Geometric Mean MIC values, E. coli Δefflux ([1]; Table 1): 2 µg/mL | Geometric Mean MIC values, P. aeruginosa ATCC 27853 (P. aeruginosa ATCC 27853): 4 µg/mL | Geometric Mean MIC values, P. aeruginosa efflux parent [9]: 8 µg/mL | Geometric Mean MIC values, P. aeruginosa Δefflux [10]: 1 µg/mL | IC50 (translation): 63 nM

CC(N)C1CCC(N)C(OC2C(N)CC(N)C(O)C2OC2OC(CO)C(OC3OC(CN)C(O)C(O)C3N)C2O)O1 (stereo not shown) [drawing 850]
Geometric Mean MIC values, E. coli ATCC 25922 (E. coli ATCC 25922; Table 1): 2.5 µg/mL | Geometric Mean MIC values, E. coli efflux parent (E. coli efflux parent; Table 1): 1 µg/mL | Geometric Mean MIC values, E. coli Δefflux ([1]; Table 1): 1 µg/mL | Geometric Mean MIC values, P. aeruginosa ATCC 27853 (P. aeruginosa ATCC 27853): 2 µg/mL | Geometric Mean MIC values, P. aeruginosa efflux parent [9]: 4 µg/mL | Geometric Mean MIC values, P. aeruginosa Δefflux [10]: 0.5 µg/mL | IC50 (translation): 14 nM

CCC(N)C1CCC(N)C(OC2C(N)CC(N)C(O)C2OC2OC(CO)C(OC3OC(CN)C(O)C(O)C3N)C2O)O1 (stereo not shown) [drawing 852]
Geometric Mean MIC values, E. coli ATCC 25922 (E. coli ATCC 25922; Table 1): 1 µg/mL | Geometric Mean MIC values, E. coli efflux parent (E. coli efflux parent; Table 1): 2 µg/mL | Geometric Mean MIC values, E. coli Δefflux ([1]; Table 1): 1 µg/mL | Geometric Mean MIC values, P. aeruginosa ATCC 27853 (P. aeruginosa ATCC 27853): 1 µg/mL | Geometric Mean MIC values, P. aeruginosa efflux parent [9]: 2 µg/mL | Geometric Mean MIC values, P. aeruginosa Δefflux [10]: 0.5 µg/mL | IC50 (translation): 26 nM

NCC1CCC(N)C(OC2C(N)CC(N)C(O)C2OC2OC(CO)C(OC3OC(CN)C(O)C(O)C3N)C2O)O1 (stereo not shown) [drawing 848]
Geometric Mean MIC values, E. coli ATCC 25922 (E. coli ATCC 25922; Table 1): 1.1 µg/mL | Geometric Mean MIC values, E. coli efflux parent (E. coli efflux parent; Table 1): 1.4 µg/mL | Geometric Mean MIC values, E. coli Δefflux ([1]; Table 1): 1.4 µg/mL | Geometric Mean MIC values, P. aeruginosa ATCC 27853 (P. aeruginosa ATCC 27853): 0.57 µg/mL | Geometric Mean MIC values, P. aeruginosa efflux parent [9]: 0.77 µg/mL | Geometric Mean MIC values, P. aeruginosa Δefflux [10]: 0.5 µg/mL | IC50 (translation): 13 nM
